Data reported in patent publication US11034672B1, “Tyrosine kinase inhibitor compositions, methods of making and methods of use” (Black Diamond Therapeutics, Inc., priority 2018, dated 2021).

What was measured:
Format in all cases: cell-based
HER2 S310F [1] = molecular target: T1, HER2 S310F (Homo sapiens, UniProt P04626, S310F); assay: BaF3 cell proliferation assay, HER2 S310F (Table B); settings: potency code, 3 days, CellTiterGlo, read-out: HER2 S310F (Activity for Inhibiting HER2)
T1 construct: expressed in transfected cells; host or cells: BaF3 (murine pro-B)
T1 sequence (P04626 23-1255 S310F): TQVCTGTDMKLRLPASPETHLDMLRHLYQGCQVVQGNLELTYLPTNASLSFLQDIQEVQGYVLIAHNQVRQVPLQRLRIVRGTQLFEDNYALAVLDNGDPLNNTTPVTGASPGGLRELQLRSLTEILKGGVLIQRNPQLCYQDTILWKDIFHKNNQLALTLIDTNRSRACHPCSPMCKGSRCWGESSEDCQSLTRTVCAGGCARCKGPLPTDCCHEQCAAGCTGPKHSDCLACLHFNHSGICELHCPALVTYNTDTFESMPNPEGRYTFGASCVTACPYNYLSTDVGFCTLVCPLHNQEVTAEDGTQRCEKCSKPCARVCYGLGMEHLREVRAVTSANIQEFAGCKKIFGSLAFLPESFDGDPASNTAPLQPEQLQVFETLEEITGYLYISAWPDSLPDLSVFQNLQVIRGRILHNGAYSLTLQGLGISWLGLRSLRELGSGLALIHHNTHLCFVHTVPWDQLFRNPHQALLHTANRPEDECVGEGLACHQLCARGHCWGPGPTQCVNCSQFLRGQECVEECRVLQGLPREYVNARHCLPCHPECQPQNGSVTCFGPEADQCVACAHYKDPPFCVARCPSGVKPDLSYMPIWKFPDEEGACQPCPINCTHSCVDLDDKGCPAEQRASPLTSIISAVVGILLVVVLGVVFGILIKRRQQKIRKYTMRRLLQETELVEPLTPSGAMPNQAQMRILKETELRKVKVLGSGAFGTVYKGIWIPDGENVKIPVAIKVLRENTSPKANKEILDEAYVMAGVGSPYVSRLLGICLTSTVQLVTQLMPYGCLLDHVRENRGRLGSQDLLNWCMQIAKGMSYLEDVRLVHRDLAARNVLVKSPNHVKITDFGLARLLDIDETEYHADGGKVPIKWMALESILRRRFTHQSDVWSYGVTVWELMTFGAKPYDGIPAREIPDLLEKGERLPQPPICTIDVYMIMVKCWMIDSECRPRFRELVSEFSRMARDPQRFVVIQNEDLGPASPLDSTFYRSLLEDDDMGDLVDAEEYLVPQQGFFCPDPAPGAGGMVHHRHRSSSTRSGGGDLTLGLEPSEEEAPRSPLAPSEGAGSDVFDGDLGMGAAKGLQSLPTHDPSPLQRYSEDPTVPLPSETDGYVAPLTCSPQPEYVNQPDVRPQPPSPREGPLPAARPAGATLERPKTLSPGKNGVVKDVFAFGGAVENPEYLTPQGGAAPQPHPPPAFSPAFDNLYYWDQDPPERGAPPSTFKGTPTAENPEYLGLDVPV

HER2 YVMA [2] = molecular target: T2, HER2 YVMA (Homo sapiens, UniProt P04626, INS775YVMA); assay: Activity for inhibiting HER2 (Table B), HER2 YVMA; settings: read-out: HER2 YVMA, potency code (IC50)
T2 construct: expressed in transfected cells; host or cells: BaF3 (murine pro-B)
T2 sequence (P04626 with tags, fused parts or gaps INS775YVMA): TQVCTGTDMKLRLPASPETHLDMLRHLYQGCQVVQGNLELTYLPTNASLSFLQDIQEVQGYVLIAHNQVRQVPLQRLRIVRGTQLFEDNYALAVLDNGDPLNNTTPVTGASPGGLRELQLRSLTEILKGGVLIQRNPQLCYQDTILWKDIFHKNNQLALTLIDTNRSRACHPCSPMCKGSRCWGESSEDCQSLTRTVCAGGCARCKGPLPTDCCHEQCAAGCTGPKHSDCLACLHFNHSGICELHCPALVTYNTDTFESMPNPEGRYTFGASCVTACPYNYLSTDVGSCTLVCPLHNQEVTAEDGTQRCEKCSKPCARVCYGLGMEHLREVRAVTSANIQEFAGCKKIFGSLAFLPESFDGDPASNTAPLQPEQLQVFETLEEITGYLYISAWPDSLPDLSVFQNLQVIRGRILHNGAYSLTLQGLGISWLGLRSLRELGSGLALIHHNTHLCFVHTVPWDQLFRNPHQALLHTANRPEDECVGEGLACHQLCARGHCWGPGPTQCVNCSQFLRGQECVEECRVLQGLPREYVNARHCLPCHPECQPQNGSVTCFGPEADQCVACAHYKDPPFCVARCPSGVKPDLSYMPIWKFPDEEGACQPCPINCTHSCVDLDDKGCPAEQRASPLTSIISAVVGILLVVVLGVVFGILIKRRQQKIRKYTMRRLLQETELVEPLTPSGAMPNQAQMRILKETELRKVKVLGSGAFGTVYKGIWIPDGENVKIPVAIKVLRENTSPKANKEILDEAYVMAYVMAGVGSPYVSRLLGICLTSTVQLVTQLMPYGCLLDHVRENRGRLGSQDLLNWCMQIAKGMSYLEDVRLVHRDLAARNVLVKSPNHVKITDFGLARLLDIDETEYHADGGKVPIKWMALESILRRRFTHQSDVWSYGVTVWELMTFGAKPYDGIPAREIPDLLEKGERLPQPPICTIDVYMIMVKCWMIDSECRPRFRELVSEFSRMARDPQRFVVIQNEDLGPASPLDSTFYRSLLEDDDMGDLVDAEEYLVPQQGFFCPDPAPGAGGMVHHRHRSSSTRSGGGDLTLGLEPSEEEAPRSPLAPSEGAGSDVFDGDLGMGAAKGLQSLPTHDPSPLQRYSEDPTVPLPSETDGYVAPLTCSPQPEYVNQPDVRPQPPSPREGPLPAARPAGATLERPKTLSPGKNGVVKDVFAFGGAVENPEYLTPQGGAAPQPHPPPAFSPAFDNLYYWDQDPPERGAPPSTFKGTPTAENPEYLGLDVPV
Description: (§1) EC50 values were determined with the same application.

HER2 S310F [3] = molecular target: T1, HER2 S310F; assay: Activity for inhibiting HER2 (Table B), HER2 S310F; settings: read-out: HER2 S310F, potency code (IC50)
Description: as §1

EGFR V3 [4] = molecular target: T3, EGFR V3 (Homo sapiens, UniProt P00533, DELINS30-297G); assay: BaF3 cell proliferation assay, EGFR V3 (Table A); settings: potency code, 3 days, CellTiterGlo, read-out: EGFR V3 (Activity for Inhibiting EGFR)
T3 construct: expressed in transfected cells; host or cells: BaF3 (murine pro-B), retroviral pMXs-IRES-Blasticidin
T3 sequence (P00533 with tags, fused parts or gaps DELINS30-297G): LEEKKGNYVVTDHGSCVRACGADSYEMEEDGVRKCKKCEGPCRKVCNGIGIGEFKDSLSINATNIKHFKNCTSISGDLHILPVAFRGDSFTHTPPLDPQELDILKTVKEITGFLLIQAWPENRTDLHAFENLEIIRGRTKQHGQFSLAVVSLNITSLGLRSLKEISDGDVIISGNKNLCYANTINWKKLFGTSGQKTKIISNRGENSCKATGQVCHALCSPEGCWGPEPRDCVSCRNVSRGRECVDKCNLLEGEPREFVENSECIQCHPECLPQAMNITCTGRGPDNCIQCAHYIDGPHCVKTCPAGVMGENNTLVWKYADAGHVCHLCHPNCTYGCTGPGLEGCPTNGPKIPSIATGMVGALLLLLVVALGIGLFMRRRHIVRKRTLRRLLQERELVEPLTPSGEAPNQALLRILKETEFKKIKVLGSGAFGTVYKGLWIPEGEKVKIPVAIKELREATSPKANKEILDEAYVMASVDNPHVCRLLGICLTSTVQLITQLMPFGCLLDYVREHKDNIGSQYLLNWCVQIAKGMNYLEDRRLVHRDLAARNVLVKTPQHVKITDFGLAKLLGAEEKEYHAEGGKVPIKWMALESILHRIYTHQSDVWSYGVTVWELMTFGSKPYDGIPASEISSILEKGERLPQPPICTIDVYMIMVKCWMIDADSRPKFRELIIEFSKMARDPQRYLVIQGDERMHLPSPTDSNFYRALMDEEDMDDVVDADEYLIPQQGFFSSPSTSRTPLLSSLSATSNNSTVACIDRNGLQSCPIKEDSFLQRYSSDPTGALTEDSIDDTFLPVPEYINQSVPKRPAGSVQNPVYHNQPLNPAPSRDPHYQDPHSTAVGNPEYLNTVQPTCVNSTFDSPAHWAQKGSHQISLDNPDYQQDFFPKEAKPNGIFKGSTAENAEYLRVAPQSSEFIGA
Description: (§2) Retroviral Production: EGFR mutants were subcloned into pMXs-IRES-Blasticidin (RTV-016, Cell Biolabs, San Diego, Calif.). Retroviral expression vector retrovirus was produced by transient transfection of HEK 293T cells with the retroviral EGFR mutant expression vector pMXs-IRES-Blasticidin (RTV-016, Cell Biolabs), pCMV-Gag-Pol vector and pCMV-VSV-G-Envelope vector. Briefly, HEK 293T/17 cells were plated in 100 mm collagen coated plate (354450, Corning Life Sciences, Tewksbury, Mass.) (4×10^5 per plate) and incubated overnight. The next day, retroviral plasmids (3 μg of EGFR mutant, 1.0 μg of pCMV-Gag-Pol and 0.5 μg pCMV-VSV-G) were mixed in 500 μl of Optimem (31985, Life Technologies). The mixture was incubated at room temperature for 5 min and then added to Optimem containing transfection reagent Lipofectamine (11668, Invitrogen) and incubated for 20 minutes. Mixture was then added dropwise to HEK 293T cells. The next day the medium was replaced with fresh culture medium and retrovirus was harvested @ 24 and 48 hrs.
(§3) Generation of EGFR mutant stable cell lines: BaF3 cells (1.5E5 cells) were infected with 1 ml of viral supernatant supplemented with 8 μg/ml polybrene by centrifuging for 30 min at 1000 rpm. Cells were placed in a 37° C. incubator overnight. Cells were then spun for 5 minutes to pellet the cells. Supernatant was removed and cells re-infected a fresh 1 ml of viral supernatant supplemented with 8 μg/ml polybrene by centrifuging for 30 min at 1000 rpm. Cells were placed in 37° C. incubator overnight. […] After 48 hours cells were selected for retroviral infection in 10 μg/ml Blasticidin for one week. Blasticidin resistant populations were washed twice in phosphate buffered saline before plating in media lacking IL-3 to select for IL-3 independent growth.
as §1

EGFR V3 [5] = molecular target: T3, EGFR V3; assay: Activity for inhibiting EGFR (Table A), EGFR V3 (EGFR-Viii); settings: read-out: EGFR V3, potency code (IC50)
EGFR WT [6] = molecular target: T4, EGFR WT (Homo sapiens, UniProt P00533); assay: BaF3 cell proliferation assay, EGFR WT (Table A); settings: potency code, 3 days, CellTiterGlo, read-out: EGFR WT (Activity for Inhibiting EGFR)
T4 sequence (P00533 25-1210 N540K): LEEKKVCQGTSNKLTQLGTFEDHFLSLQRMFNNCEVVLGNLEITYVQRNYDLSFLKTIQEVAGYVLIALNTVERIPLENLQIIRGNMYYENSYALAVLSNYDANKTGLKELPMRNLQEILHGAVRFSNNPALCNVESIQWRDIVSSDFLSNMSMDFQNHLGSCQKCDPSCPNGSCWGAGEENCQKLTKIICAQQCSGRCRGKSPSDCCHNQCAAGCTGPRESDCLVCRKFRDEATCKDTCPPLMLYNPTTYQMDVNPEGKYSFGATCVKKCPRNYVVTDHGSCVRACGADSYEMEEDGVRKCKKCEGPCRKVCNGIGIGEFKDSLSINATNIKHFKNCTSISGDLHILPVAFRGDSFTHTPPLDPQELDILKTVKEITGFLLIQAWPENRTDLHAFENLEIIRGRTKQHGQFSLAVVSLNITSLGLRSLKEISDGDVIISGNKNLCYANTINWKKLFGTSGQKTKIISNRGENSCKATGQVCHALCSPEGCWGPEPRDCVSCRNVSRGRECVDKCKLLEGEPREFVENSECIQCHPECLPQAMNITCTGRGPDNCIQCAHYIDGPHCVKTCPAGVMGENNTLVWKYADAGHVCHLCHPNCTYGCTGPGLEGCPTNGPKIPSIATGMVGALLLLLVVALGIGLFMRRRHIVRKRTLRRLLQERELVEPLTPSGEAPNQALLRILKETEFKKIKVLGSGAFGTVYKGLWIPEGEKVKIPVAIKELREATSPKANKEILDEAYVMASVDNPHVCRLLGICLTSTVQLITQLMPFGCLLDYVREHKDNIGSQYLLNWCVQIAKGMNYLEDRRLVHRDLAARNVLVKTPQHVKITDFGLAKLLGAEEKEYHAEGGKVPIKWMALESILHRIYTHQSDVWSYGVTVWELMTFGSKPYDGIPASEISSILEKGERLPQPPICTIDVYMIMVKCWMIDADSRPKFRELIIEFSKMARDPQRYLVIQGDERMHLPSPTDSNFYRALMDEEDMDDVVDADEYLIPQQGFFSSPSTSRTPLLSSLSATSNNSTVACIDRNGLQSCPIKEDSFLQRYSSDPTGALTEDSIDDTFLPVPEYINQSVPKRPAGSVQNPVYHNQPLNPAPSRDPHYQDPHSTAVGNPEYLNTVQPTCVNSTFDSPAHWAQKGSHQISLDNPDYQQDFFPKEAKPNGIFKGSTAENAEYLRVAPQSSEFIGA
Description: as §2, §3, §1

HER2 YVMA [7] = molecular target: T2, HER2 YVMA; assay: BaF3 cell proliferation assay, HER2 YVMA (Table B); settings: potency code, 3 days, CellTiterGlo, read-out: HER2 YVMA (Activity for Inhibiting HER2)
EGFR WT [8] = molecular target: T4, EGFR WT; assay: Activity for inhibiting EGFR (Table A), EGFR WT; settings: read-out: EGFR WT, potency code (IC50)

| IC50 (HER2 S310F [1]) [nM] | IC50 (HER2 YVMA [2]) [nM] | IC50 (HER2 S310F [3]) [nM] | IC50 (EGFR V3 [4]) [nM] | IC50 (EGFR V3 [5]) [nM] | IC50 (EGFR WT [6]) [nM] | IC50 (HER2 YVMA [7]) [nM] | IC50 (EGFR WT [8]) [nM] | SMILES |
| --- | --- | --- | --- | --- | --- | --- | --- | --- |
| 10 to 20 | 30 to 50 | 10 to 20 | 50 to 100 | 50 to 100 | 200 to 300 | 30 to 50 | 200 to 300 | CC#CC(=O)Nc1cc2c(Nc3cc(Cl)c(OCc4cccc(F)c4)cc3F)ncnc2cc1OCCCN1CCOCC1 [compound 150, N-(4-((5-chloro-2-fluoro-4-((3-fluorobenzyl)oxy)phenyl)amino)-7-(3-morpholinopropoxy)quinazolin-6-yl)but-2-ynamide] |
| 200 to 300 | 300 to 500 | 200 to 300 | 200 to 300 | 200 to 300 | > 1000 | 300 to 500 | > 1000 | C=CC(=O)Nc1cc2c(Nc3ccc(OCc4cccc(OC(F)(F)F)n4)c(Cl)c3)ncnc2cc1OCCN1CCOCC1 [compound 24] |
| 50 to 100 | 300 to 500 | 50 to 100 | 50 to 100 | 50 to 100 | > 1000 | 300 to 500 | > 1000 | C=CC(=O)Nc1cc2c(Nc3ccc(OCc4cccnn4)c(Cl)c3)ncnc2cc1OCCN1CC(OC)C1 [compound 174] |
| 50 to 100 | 500 to 1000 | 50 to 100 | 100 to 200 | 100 to 200 | 200 to 300 | 500 to 1000 | 200 to 300 | C=CC(=O)Nc1cc2c(Nc3cc(Cl)c(OCc4cccc(F)c4)cc3F)ncnc2cc1O[C@@H]1CCN(C)C1 [compound 133] |
| 10 to 20 | 100 to 200 | 10 to 20 | 50 to 100 | 50 to 100 | 500 to 1000 | 100 to 200 | 500 to 1000 | C=CC(=O)Nc1cc2c(Nc3ccc(OCc4ccccn4)c(Cl)c3)ncnc2cc1C#CC1CCCN1 (stereo not drawn) [compound 83, N-(4-((3-chloro-4-(pyridin-2-ylmethoxy)phenyl)amino)-7-(pyrrolidin-2-ylethynyl)quinazolin-6-yl)acrylamide] |
| 10 to 20 | 30 to 50 | 10 to 20 | 10 to 20 | 10 to 20 | 100 to 200 | 30 to 50 | 100 to 200 | C=CC(=O)Nc1cc2c(Nc3ccc(OCc4ccccn4)c(Cl)c3)ncnc2cc1OC[C@H]1CCN(C)C1 [compound 101, N-(4-((3-chloro-4-(pyridin-2-ylmethoxy)phenyl)amino)-7-((1-methylpyrrolidin-3-yl)methoxy)quinazolin-6-yl)acrylamide] |
| 30 to 50 | 100 to 200 | 30 to 50 | 30 to 50 | 30 to 50 | 200 to 300 | 100 to 200 | 200 to 300 | C=CC(=O)Nc1cc2c(Nc3ccc(OCc4ccccn4)c(Cl)c3)ncnc2cc1OCC1CN(C)C1 [compound 123, N-(4-((3-chloro-4-(pyridin-2-ylmethoxy)phenyl)amino)-7-((1-methylazetidin-3-yl)methoxy)quinazolin-6-yl) Acrylamide] |
| 30 to 50 | 100 to 200 | 30 to 50 | 30 to 50 | 30 to 50 | 100 to 200 | 100 to 200 | 100 to 200 | C=CC(=O)Nc1cc2c(Nc3ccc(OCc4cccc(F)n4)c(Cl)c3)ncnc2cc1OCCN1CCN(C)CC1 [compound 158] |
| 30 to 50 | 200 to 300 | 30 to 50 | 50 to 100 | 50 to 100 | > 1000 | 200 to 300 | > 1000 | C=CC(=O)Nc1cc2c(Nc3ccc(OCc4cccnn4)c(Cl)c3)ncnc2cc1OCCN1CC2CCC(C1)O2 [compound 173] |

Second part, the molecule before the results:

| SMILES | IC50 (HER2 S310F [1]) [nM] | IC50 (HER2 YVMA [2]) [nM] | IC50 (HER2 S310F [3]) [nM] | IC50 (EGFR V3 [4]) [nM] | IC50 (EGFR V3 [5]) [nM] | IC50 (EGFR WT [6]) [nM] | IC50 (HER2 YVMA [7]) [nM] | IC50 (EGFR WT [8]) [nM] |
| --- | --- | --- | --- | --- | --- | --- | --- | --- |
| C=CC(=O)Nc1cc2c(Nc3ccc(OCc4cnccn4)c(Cl)c3)ncnc2cc1OCCN1CC2CCC(C1)O2 [compound 175] | 20 to 30 | 100 to 200 | 20 to 30 | 30 to 50 | 30 to 50 | > 1000 | 100 to 200 | > 1000 |
| C=CC(=O)Nc1cc2c(Nc3ccc(OCc4ccccn4)c(Cl)c3)ncnc2cc1OCCN(C)C1CC1 [compound 53] | 30 to 50 | 100 to 200 | 30 to 50 | 30 to 50 | 30 to 50 | > 1000 | 100 to 200 | > 1000 |
| C=CC(=O)Nc1cc2c(Nc3ccc(Oc4ccc(C)nc4)c(C)c3)ncnc2cc1OCCN1CCOCC1 [compound 73] | 30 to 50 | 300 to 500 | 30 to 50 | 50 to 100 | 50 to 100 | 500 to 1000 | 300 to 500 | 500 to 1000 |
| C=CC(=O)Nc1cc2c(Nc3ccc(OCc4ccccn4)c(Cl)c3)ncnc2cc1OCCN1CC2CN(C)CC2C1 (stereo not drawn) [compound 77] | 20 to 30 | 100 to 200 | 20 to 30 | 50 to 100 | 50 to 100 | 100 to 200 | 100 to 200 | 100 to 200 |
| C=CC(=O)Nc1cc2c(Nc3ccc(OCc4ccccn4)c(Cl)c3)ncnc2cc1OCCN1CCC2C1CCN2C (stereo not drawn) [compound 92, N-(4-((3-chloro-4-(pyridin-2-ylmethoxy)phenyl)amino)-7-(2-(4-methylhexahydropyrrolo[3,2-b]pyrrol-1(2H)-yl)ethoxy)quinazolin-6-yl)acrylamide] | 20 to 30 | 100 to 200 | 20 to 30 | 30 to 50 | 30 to 50 | 100 to 200 | 100 to 200 | 100 to 200 |
| C=CC(=O)Nc1cc2c(Nc3ccc(CC(=O)c4ccccn4)c(Cl)c3)ncnc2cc1O[C@@H]1CCN(C)C1 [compound 121] | 30 to 50 | 300 to 500 | 30 to 50 | 100 to 200 | 100 to 200 | > 1000 | 300 to 500 | > 1000 |
| C=CC(=O)Nc1cc2c(Nc3ccc(OCc4cccnn4)c(Cl)c3)ncnc2cc1OCCCN1CC(OC)C1 [compound 177] | 10 to 20 | 50 to 100 | 10 to 20 | 30 to 50 | 30 to 50 | 500 to 1000 | 50 to 100 | 500 to 1000 |
| C=CC(=O)Nc1cc2c(Nc3ccc(OCc4cccc(C)n4)c(Cl)c3)ncnc2cc1O[C@@H]1CCN(C)C1 [compound 140] | 100 to 200 | 300 to 500 | 100 to 200 | 100 to 200 | 100 to 200 | 300 to 500 | 300 to 500 | 300 to 500 |
| C=CC(=O)Nc1cc2c(Nc3ccc(OCc4ccccn4)c(Cl)c3)ncnc2cc1C#C[C@H]1CCNC1 [compound 86, N-(4-((3-chloro-4-(pyridin-2-ylmethoxy)phenyl)amino)-7-(pyrrolidin-3-ylethynyl)quinazolin-6-yl)acrylamide] | 20 to 30 | 100 to 200 | 20 to 30 | 100 to 200 | 100 to 200 | 500 to 1000 | 100 to 200 | 500 to 1000 |
| C=CC(=O)Nc1cc2c(Nc3ccc(OCc4ccccn4)c(Cl)c3)ncnc2cc1OCCN1CCC(N(C)C)CC1 [compound 76] | 30 to 50 | 100 to 200 | 30 to 50 | 50 to 100 | 50 to 100 | 200 to 300 | 100 to 200 | 200 to 300 |
| C=CC(=O)Nc1cc2c(Nc3ccc(OCc4cccc(F)c4)c(Cl)c3)ncnc2cc1OCCN1CC2CCC(C1)O2 [compound 139] | 30 to 50 | 100 to 200 | 30 to 50 | 100 to 200 | 100 to 200 | 500 to 1000 | 100 to 200 | 500 to 1000 |
| C=CC(=O)Nc1cc2c(Nc3ccc(Oc4ccc(C)nc4)c(C)c3)ncnc2cc1C#CC(C)(C)N(C)C [compound 82] | 50 to 100 | 500 to 1000 | 50 to 100 | 300 to 500 | 300 to 500 | 500 to 1000 | 500 to 1000 | 500 to 1000 |
